Literature values, collected in paper PMC10046020, “In Silico Screening and Optimization of Cell-Penetrating Peptides Using Deep Learning Methods” (Biomolecules, 2023).
Read-outs that look alike come from different tables or passages of the source.

Conditions: cited from earlier work; for class (CPP / Non-CPP), Train Set: Spreadsheet S2: peptides collected from CellPPD
Excerpt: Supplement biomolecules-13-00522-s001.zip/biomolecules-2162660_Supplementary Spreadsheets S1 Test Set.csv, table | column: class || Supplement biomolecules-13-00522-s001.zip/biomolecules-2162660_Supplementary Spreadsheets S2 Train Set.csv, table | column: class

[1] = MLCPP, CPPsite 2.0, Lifetein and other publications
[2] = Spreadsheet S1: 150 CPP and 150 non-CPP peptides collected from CellPPD, MLCPP, CPPsite 2.0, Lifetein and other publications

IYLATALAKWALKQGGRRRRRRR
class (CPP / Non-CPP), Train Set [1]: CPP

RLLRLLRLL
class (CPP / Non-CPP), Test Set: CPP

KDCERRFSRSDQLKRHQRRHTGVKPFQK
class (CPP / Non-CPP), Test Set [2]: CPP

CGGGRRRRRRRRRLLLL
class (CPP / Non-CPP), Test Set [2]: CPP

LALALALALALALAKLAKLAKLAKLAKIKKIKKKIK
class (CPP / Non-CPP), Test Set [2]: CPP

FKMHEN
class (CPP / Non-CPP), Test Set: Non-CPP

LKKLAELAHKLLKLG
class (CPP / Non-CPP), Test Set [2]: CPP

LLIILRRPIRKQAHAHSK
class (CPP / Non-CPP), Test Set [2]: CPP

KKKKKKKKK
class (CPP / Non-CPP), Test Set [2]: CPP

KNNLKECGLY
class (CPP / Non-CPP), Test Set: CPP

NTCTWLKY
class (CPP / Non-CPP), Test Set: CPP

VTQADVGSALANLKIPGVGS
class (CPP / Non-CPP), Test Set [2]: Non-CPP

CREKAKKLFKKILKKL
class (CPP / Non-CPP), Test Set [2]: CPP

RRRRRRRHHH
class (CPP / Non-CPP), Test Set: CPP

PVVHLTLRQAGDDFGR
class (CPP / Non-CPP), Test Set [2]: Non-CPP

NYRWRCKN
class (CPP / Non-CPP), Test Set: CPP

KKLALHALHLLALLWLHLAHLALKK
class (CPP / Non-CPP), Test Set [2]: CPP

FVPFFTHSELQKIREKERNKGQ
class (CPP / Non-CPP), Test Set [2]: Non-CPP

INWLKLGKAIIDAL
class (CPP / Non-CPP), Test Set [2]: Non-CPP

RRRRRRRRK
class (CPP / Non-CPP), Test Set: CPP

RFTFHFRFEFTFHFE
class (CPP / Non-CPP), Test Set [2]: CPP

QNLGNDWAVGHLM
class (CPP / Non-CPP), Test Set: Non-CPP

ACRGRGRGCGRGRGRCG
class (CPP / Non-CPP), Test Set [2]: CPP

KLAAKLALKALKAA
class (CPP / Non-CPP), Test Set [2]: Non-CPP

APKRKSGVSK
class (CPP / Non-CPP), Test Set [2]: CPP

MLPRLICINDYEQHAKSVLPKSIYDYYRSGANDEE
class (CPP / Non-CPP), Test Set [2]: Non-CPP

QIFWDSRHPSQH
class (CPP / Non-CPP), Test Set: Non-CPP

LMLRTVGYKFHCSLPVNAVHCSLK
class (CPP / Non-CPP), Test Set [2]: Non-CPP

TAQVFFNVYKKAKPN
class (CPP / Non-CPP), Test Set [2]: Non-CPP

GGTSSSDAQQSLQSFWPRVM
class (CPP / Non-CPP), Test Set [2]: Non-CPP

PVVHLTLRQAGDDFSR
class (CPP / Non-CPP), Test Set [2]: Non-CPP

VKKKKIKREIKIAAQRYGRELRRMADEFHV
class (CPP / Non-CPP), Test Set [2]: CPP

RRRRRRRRRRWWWWWW
class (CPP / Non-CPP), Test Set [2]: CPP

YGDCLPHLKLCKENKDCCSKKCKRRGTNIEKRCR
class (CPP / Non-CPP), Test Set [2]: CPP

QQPFVQQQQPFVQQ
class (CPP / Non-CPP), Test Set [2]: Non-CPP

YGRKKRRQRRRYGRKKRRQRRR
class (CPP / Non-CPP), Test Set [2]: CPP

LSNTLAELYVREHLR
class (CPP / Non-CPP), Test Set [2]: Non-CPP

MVMEMRNF
class (CPP / Non-CPP), Test Set: Non-CPP

YTMQMLLEIHRKNW
class (CPP / Non-CPP), Test Set [2]: Non-CPP

RKKRRQRRRGKKKKKKKKKKKKKKKGRKKRRQRRR
class (CPP / Non-CPP), Test Set [2]: CPP

YTFGLKTSFNVQ
class (CPP / Non-CPP), Test Set: CPP

PDEIGGKFPTAYVQDYLINPE
class (CPP / Non-CPP), Test Set [2]: Non-CPP

RFVHNC
class (CPP / Non-CPP), Test Set: Non-CPP

QGARNYKCCFAWC
class (CPP / Non-CPP), Test Set: Non-CPP

TERQGKIWFQNRRMK
class (CPP / Non-CPP), Test Set [2]: Non-CPP

RRRRRRRRC
class (CPP / Non-CPP), Test Set: CPP

RRRRRRRRGC
class (CPP / Non-CPP), Test Set: CPP

RRLRHLRHHYRRRWHRFR
class (CPP / Non-CPP), Test Set [2]: CPP

YGRGGRRGRRR
class (CPP / Non-CPP), Test Set: CPP

MEPLWWANYDNTQ
class (CPP / Non-CPP), Test Set: Non-CPP

PLGPVVHKCCPGFGGLQWLPLLWNWYQNMWGN
class (CPP / Non-CPP), Test Set [2]: Non-CPP

LELELELELELELELELELE
class (CPP / Non-CPP), Test Set [2]: CPP

KALKKLLAKWAAAKALL
class (CPP / Non-CPP), Test Set [2]: CPP

SYNTF
class (CPP / Non-CPP), Test Set: Non-CPP

FKCRRWQWRMKKLGKRSKNKGFKEQAKSLLKWILD
class (CPP / Non-CPP), Test Set [2]: CPP

WEAVVAYGRKKRRQRRR
class (CPP / Non-CPP), Test Set [2]: CPP

YGFMELFDDVTAIFSIDHCQEEYYEQMANNVM
class (CPP / Non-CPP), Test Set [2]: Non-CPP

IAARIKLRSRQHIKLRHL
class (CPP / Non-CPP), Test Set [2]: Non-CPP

ARRRCSDRFRNCPADEALCGRRR
class (CPP / Non-CPP), Test Set [2]: CPP

TAMRAVDKLLLHLKKLFREGQFNRNFESIIICRDRT
class (CPP / Non-CPP), Test Set [2]: CPP

EMCILIDENDNKIGADTKKNCHLNENIDKGLLHRA
class (CPP / Non-CPP), Test Set [2]: Non-CPP

ACSGRGSGCGSGRGSCG
class (CPP / Non-CPP), Test Set [2]: CPP

GWTNLSAGCLLGPPPGFSPFR
class (CPP / Non-CPP), Test Set [2]: Non-CPP

HSDGIFTDSYSRYRKQMAVKKYLAAVLGKRYKQRVKNK
class (CPP / Non-CPP), Test Set [2]: CPP

AITFYPFAPNQITCIHE
class (CPP / Non-CPP), Test Set [2]: Non-CPP

KLAKLAKKLAKLAKGGRRRRRRR
class (CPP / Non-CPP), Test Set [2]: CPP

KKRTLRKNDRKKRC
class (CPP / Non-CPP), Test Set [2]: CPP

FTFGGGYVYFEEYAY
class (CPP / Non-CPP), Test Set [2]: Non-CPP

IVMVGDGGVGKSAMTIQFIQSTFV
class (CPP / Non-CPP), Test Set [2]: Non-CPP

FLGALFKVASKVLPSVFCAITKKC
class (CPP / Non-CPP), Test Set [2]: Non-CPP

CSKSSDYQC
class (CPP / Non-CPP), Test Set: CPP

TTPFTIRGPLGNQGRGNPVR
class (CPP / Non-CPP), Test Set [2]: Non-CPP

PPPPPPPPPPPLRR
class (CPP / Non-CPP), Test Set [2]: CPP

LLATTALLKTTALLKTTA
class (CPP / Non-CPP), Test Set [2]: Non-CPP

LVVLGKLYGRKKRRQRRR
class (CPP / Non-CPP), Test Set [2]: CPP

HADGLFTSGYSKLLGQLSARRYLESLI
class (CPP / Non-CPP), Test Set [2]: Non-CPP

KGRKKRRQRRRPPQ
class (CPP / Non-CPP), Test Set [2]: CPP

FITKALGISYGRKWRRQC
class (CPP / Non-CPP), Test Set [2]: Non-CPP

FLPLFLPKIICVITKKC
class (CPP / Non-CPP), Test Set [2]: Non-CPP

RRRRRRRGGIYLATALAKWALKQGF
class (CPP / Non-CPP), Train Set [1]: CPP

CVKLNDGHFMPVLGFGTYAPPEVPRSKALEVTKLA
class (CPP / Non-CPP), Test Set [2]: Non-CPP

FKCRRWQWRMKKLG
class (CPP / Non-CPP), Test Set [2]: CPP

CYFQNCPVG
class (CPP / Non-CPP), Test Set: Non-CPP

LLKTTALLKTTALHKTTA
class (CPP / Non-CPP), Test Set [2]: Non-CPP

QSGAKPGHCEWQSTHLKNCEKVNDIRQPPHHQRS
class (CPP / Non-CPP), Test Set [2]: Non-CPP

TPTSPSSPGLSPVPPPDKVDGFSRRSLRRARPRR
class (CPP / Non-CPP), Test Set [2]: Non-CPP

IHSHWFVMVLKGKAARQRDDLWTHPCFPS
class (CPP / Non-CPP), Test Set [2]: Non-CPP

KNLRRIIRKGIHIIKKYF
class (CPP / Non-CPP), Test Set [2]: CPP

CPLDQFECGGDEPG
class (CPP / Non-CPP), Test Set [2]: Non-CPP

SHMMGEFWGDEDMCYRHQRSYET
class (CPP / Non-CPP), Test Set [2]: Non-CPP

ARRCSGSGSGCGSGSGSCGRR
class (CPP / Non-CPP), Test Set [2]: CPP

FVPIFTHSELQKIREKERNKGQ
class (CPP / Non-CPP), Test Set [2]: Non-CPP

DWLKAFYDKVAEKLKEAF
class (CPP / Non-CPP), Test Set [2]: CPP

NYQRRCKNQN
class (CPP / Non-CPP), Test Set: CPP

GWTLNSAGYLNGKFLPLILRKIVTAL
class (CPP / Non-CPP), Test Set [2]: Non-CPP

YTPNDITLNNSVALDPIDISIELNKAKSDLEESKE
class (CPP / Non-CPP), Test Set [2]: Non-CPP

ACSGSGSGCGSGSGSCGRRRRRRRR
class (CPP / Non-CPP), Test Set [2]: CPP

RRRRRRRGGKLAKLAKKLAKLAK
class (CPP / Non-CPP), Train Set [1]: CPP

AHALCLTERQIKSNRRMKWKKEN
class (CPP / Non-CPP), Test Set [2]: Non-CPP

RGGRLCYCRRRFCVCVGR
class (CPP / Non-CPP), Test Set [2]: CPP

MDMVAIDDQDYIMCHF
class (CPP / Non-CPP), Test Set [2]: Non-CPP

QEHDYGNLDLCN
class (CPP / Non-CPP), Test Set: Non-CPP

HDEFERHAEGEFTSDVSSYLEGQAAKEFIAWLVKGR
class (CPP / Non-CPP), Test Set [2]: Non-CPP

NYRWRCKNQ
class (CPP / Non-CPP), Test Set: CPP

GWTLNSAGYLLEPHAI
class (CPP / Non-CPP), Test Set [2]: Non-CPP

QWGYGGMPYGGYGGMGGYGMGGYGMGY
class (CPP / Non-CPP), Test Set [2]: Non-CPP

LLGDFFRKSKEKIGKEFKRIVQRIKDFLRNLVPRTES
class (CPP / Non-CPP), Test Set [2]: CPP

ARFSNPGVWSKVAADIFNMALDTALA
class (CPP / Non-CPP), Test Set [2]: Non-CPP

AGYLLGHINLHHLAHLHHIL
class (CPP / Non-CPP), Test Set [2]: CPP

ACRDRFRRCPADRRLCG
class (CPP / Non-CPP), Test Set [2]: CPP

ICITRRSICMVTCNKEWPQNRNAHTFLI
class (CPP / Non-CPP), Test Set [2]: Non-CPP

VVLYKYRCYKVI
class (CPP / Non-CPP), Test Set: CPP

AVNANFGWQDKRFSTFG
class (CPP / Non-CPP), Test Set [2]: Non-CPP

NTCTWLKYHS
class (CPP / Non-CPP), Test Set: CPP

GSSGMIPFPRV
class (CPP / Non-CPP), Test Set: Non-CPP

FHFHFRFR
class (CPP / Non-CPP), Test Set: CPP

TRQARRNRRRWRERQR
class (CPP / Non-CPP), Test Set [2]: CPP

LRHHLRHLLRHLRHLLRHLRHHLRHLLRH
class (CPP / Non-CPP), Test Set [2]: CPP

HAQKQLSKTSWDFIEGEADDGITYSENIAAFKRIRLR
class (CPP / Non-CPP), Test Set [2]: Non-CPP

LKKLLKLLKKLLKLAG
class (CPP / Non-CPP), Test Set [2]: CPP

WELVVLGYGRKKRRQRRR
class (CPP / Non-CPP), Test Set [2]: CPP
